We go through 15 compounds from ChEMBL document CHEMBL1773059, “NMS-P937, a 4,5-dihydro-1H-pyrazolo[4,3-h]quinazoline derivative as potent and selective Polo-like kinase 1 inhibitor” (Bioorg Med Chem Lett, 2011).

In brackets after ≈: the same amount, converted by molar mass. Activity calls are given as the source filed them. No cut-off for these calls is given here. A value given as a limit tells only on which side of the number the result lay.

The target of data set [1] is Serine/threonine-protein kinase PLK2 (Homo sapiens, UniProt Q9NYY3). Briefly: Inhibition of PLK2 assessed as [33P]gamma-ATP incorporation into substrate after 60 mins by gamma counting.
Sequence of Serine/threonine-protein kinase PLK2 (Q9NYY3 whole entry): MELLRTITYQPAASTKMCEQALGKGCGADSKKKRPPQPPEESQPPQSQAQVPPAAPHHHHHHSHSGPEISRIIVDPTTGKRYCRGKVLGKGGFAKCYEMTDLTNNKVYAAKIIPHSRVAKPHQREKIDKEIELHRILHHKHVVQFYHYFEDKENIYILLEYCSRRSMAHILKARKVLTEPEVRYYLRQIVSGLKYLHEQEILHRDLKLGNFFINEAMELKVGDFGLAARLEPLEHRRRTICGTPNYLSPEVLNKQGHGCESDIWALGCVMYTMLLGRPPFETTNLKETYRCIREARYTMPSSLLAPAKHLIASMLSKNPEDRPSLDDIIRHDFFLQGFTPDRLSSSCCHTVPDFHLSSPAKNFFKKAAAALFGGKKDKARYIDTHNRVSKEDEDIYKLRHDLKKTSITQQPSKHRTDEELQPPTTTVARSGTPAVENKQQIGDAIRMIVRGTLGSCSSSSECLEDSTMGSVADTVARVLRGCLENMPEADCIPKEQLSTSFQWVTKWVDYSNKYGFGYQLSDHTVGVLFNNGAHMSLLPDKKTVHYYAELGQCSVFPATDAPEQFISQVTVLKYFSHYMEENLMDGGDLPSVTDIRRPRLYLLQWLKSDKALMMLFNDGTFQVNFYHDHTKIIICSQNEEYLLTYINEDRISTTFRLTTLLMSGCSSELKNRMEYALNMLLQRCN
In data set [2] the test system is A2780. The experiment in a line: Antiproliferative activity against human A2780 cells.
The nature of data set [3]: Solubility of compound at pH 7. It counts as physicochemical. As to conditions: buffer.
Data set [4] has as its target Serine/threonine-protein kinase PLK1 (Homo sapiens, UniProt P53350). Briefly: Inhibition of PLK1 assessed as [33P]gamma-ATP incorporation into substrate after 60 mins by gamma counting.
The target of data set [5] is Serine/threonine-protein kinase PLK3 (Homo sapiens, UniProt Q9H4B4). Briefly: Inhibition of PLK3 assessed as [33P]gamma-ATP incorporation into substrate after 60 mins by gamma counting.
Sequence of Serine/threonine-protein kinase PLK3 (Q9H4B4 whole entry): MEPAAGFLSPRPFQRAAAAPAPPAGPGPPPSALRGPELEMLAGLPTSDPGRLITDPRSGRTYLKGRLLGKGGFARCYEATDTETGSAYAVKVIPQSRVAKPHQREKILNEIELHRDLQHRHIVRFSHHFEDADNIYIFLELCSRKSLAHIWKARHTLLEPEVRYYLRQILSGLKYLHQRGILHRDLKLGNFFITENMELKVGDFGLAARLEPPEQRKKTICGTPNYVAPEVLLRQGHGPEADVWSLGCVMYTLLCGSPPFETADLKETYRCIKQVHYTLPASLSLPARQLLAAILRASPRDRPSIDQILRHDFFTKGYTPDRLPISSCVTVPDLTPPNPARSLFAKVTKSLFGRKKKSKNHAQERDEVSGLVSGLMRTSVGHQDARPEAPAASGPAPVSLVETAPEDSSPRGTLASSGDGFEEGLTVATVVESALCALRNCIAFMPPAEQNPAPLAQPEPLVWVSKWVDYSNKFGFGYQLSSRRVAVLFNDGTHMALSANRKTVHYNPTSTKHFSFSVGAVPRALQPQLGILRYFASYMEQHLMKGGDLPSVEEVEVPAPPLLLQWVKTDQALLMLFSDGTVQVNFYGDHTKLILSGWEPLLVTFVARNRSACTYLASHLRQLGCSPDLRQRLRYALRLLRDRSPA
Data set [6] is described as follows: Apparent permeability of the compound by PAMPA assay. It counts as ADME.
Data set [7] is described as follows: Solubility of compound in 10% Tween 80. The format is physicochemical.
The test system of data set [8] is Caco-2. The experiment in a line: Apparent permeability of the compound across human Caco2 cells. It counts as ADME, cell-based.
A short description of data set [9]: Intrinsic clearance in rat hepatocytes at 1 uM. It counts as ADME, cell-based, Liver, Hepatocyte.
A short description of data set [10]: Intrinsic clearance in human liver microsomes at 1 uM. The format is ADME, Microsome.
Data set [11] has as its system Mus musculus. The experiment in a line: Toxicity in CD1 nu/nu mouse xenografted with human HCT116 cells assessed as reversible body weight loss at 30 mg/kg, iv BID administered on days 1 to 2 in weekly scheduling for 3 cycles measured on day 30. Conditions: in vivo. It counts as organism-based, HCT-116. Also on record: dose 30 mg/kg, route intravenous.
The test system of data set [12] is Mus musculus. The experiment in a line: Toxicity in CD1 nu/nu mouse xenografted with human HCT116 cells assessed as reversible body weight loss at 90 mg/kg, po once daily administered on days 1 to 2 in weekly scheduling for 4 cycles measured on day 15. Conditions: in vivo.
Data set [13] has as its system HCT-116. The experiment in a line: Antitumor activity against human HCT116 cells xenografted in CD1 nu/nu mouse assessed as tumor growth inhibition at 90 mg/kg, po once daily administered on days 1 to 2 daily in weekly scheduling for 4 cycles measured on day 18. Conditions: HCT-116, po, 432 h, read-out: TGI.
Data set [14] can be described thus: AUC (infinity) in overnight fasted CD1 nu/nu mouse at 10 mg/kg, iv. It counts as ADME, organism-based. Details: time infinity, dose 10 mg/kg, route intravenous. Conditions: plasma.
Data set [15] can be described thus: Clearance in overnight fasted CD1 nu/nu mouse at 10 mg/kg, iv. The format is ADME, organism-based. Also on record: dose 10 mg/kg, route intravenous. Conditions: in vivo.
The nature of data set [16]: Volume of distribution at steady state in overnight fasted CD1 nu/nu mouse at 10 mg/kg, iv. It counts as ADME, organism-based. As to conditions: in vivo, read-out: Vdss. Also on record: dose 10 mg/kg, route intravenous.
The nature of data set [17]: Half life in overnight fasted CD1 nu/nu mouse at 10 mg/kg, iv. Also on record: dose 10 mg/kg, route intravenous. As to conditions: in vivo. The format is ADME, organism-based.
The nature of data set [18]: Cmax in overnight fasted CD1 nu/nu mouse at 10 mg/kg, po. It counts as ADME, organism-based. Details: dose 10 mg/kg, route oral. As to conditions: in vivo.
Data set [19] in a line: AUC (infinity) in overnight fasted CD1 nu/nu mouse at 10 mg/kg, po. The format is ADME, organism-based. Details: time infinity, dose 10 mg/kg, route oral. As to conditions: plasma.
Data set [20] is described as follows: Half life in overnight fasted CD1 nu/nu mouse at 10 mg/kg, po. Conditions: in vivo. Also on record: dose 10 mg/kg, route oral. The format is ADME, organism-based.
Data set [21] can be described thus: Oral bioavailability in overnight fasted CD1 nu/nu mouse at 10 mg/kg. It counts as ADME, organism-based. As to conditions: in vivo.
Data set [22] has as its system CAL-51. Briefly: Cell cycle arrest in human CAL51 cells at 0.1 to 1 uM after 24 hrs by flow cytometry. It counts as functional, cell-based.

Sequence of Serine/threonine-protein kinase PLK1 (P53350 whole entry): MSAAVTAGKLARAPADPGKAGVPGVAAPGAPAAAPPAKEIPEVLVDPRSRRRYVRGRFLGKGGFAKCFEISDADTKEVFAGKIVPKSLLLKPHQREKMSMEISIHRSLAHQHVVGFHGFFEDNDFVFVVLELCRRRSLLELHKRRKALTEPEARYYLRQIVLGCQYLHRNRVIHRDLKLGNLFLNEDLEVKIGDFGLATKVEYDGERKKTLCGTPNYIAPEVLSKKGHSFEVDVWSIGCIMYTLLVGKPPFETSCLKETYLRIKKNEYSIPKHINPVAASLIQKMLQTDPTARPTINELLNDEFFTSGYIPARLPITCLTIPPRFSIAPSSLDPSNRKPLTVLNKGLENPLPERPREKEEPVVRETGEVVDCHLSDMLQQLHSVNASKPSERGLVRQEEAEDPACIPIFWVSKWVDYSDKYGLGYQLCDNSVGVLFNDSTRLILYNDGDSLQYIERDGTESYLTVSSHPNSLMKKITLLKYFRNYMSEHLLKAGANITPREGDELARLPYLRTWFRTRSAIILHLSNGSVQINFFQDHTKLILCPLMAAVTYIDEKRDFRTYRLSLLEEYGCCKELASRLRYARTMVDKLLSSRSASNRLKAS

Take `CN1CCN(c2ccc(OC(F)(F)F)c(Nc3ncc4c(n3)-c3c(c(C(N)=O)nn3C)CC4)c2)[C@H](CO)C1`: the concentration for half-maximal inhibition (IC50) was determined as 1490 nM in data set [1] and 1620 nM in data set [2]. Moreover, the concentration in solution in [3] (solubility) was 166 µM (≈ 88.4 µg/mL).

As to `CN1CCN(c2ccc(OC(F)(F)F)c(Nc3ncc4c(n3)-c3c(c(C(N)=O)nn3CCCN)CC4)c2)CC1`, the IC50 is 52 nM in [4], > 10000 nM in data set [1], > 10000 nM in data set [5] and 846 nM in [2]. Besides, the solubility in data set [3] stood at 186 µM (≈ 101 µg/mL). The Papp in [6] stood at 4 ×10⁻⁶ cm/s.

For `CN(C)CCCn1nc(C(N)=O)c2c1-c1nc(Nc3cc(N4CCN(C)CC4)ccc3OC(F)(F)F)ncc1CC2`, the IC50 in data set [4] was 279 nM; in data set [1], > 10000 nM; in data set [5], > 10000 nM; in data set [2], 2500 nM. The same compound registered a solubility in data set [3] of 200 µM (≈ 115 µg/mL).

Consider `Cn1nc(C(N)=O)c2c1-c1nc(Nc3cc(NC(=O)[C@@H]4CCCN4)ccc3OC(F)(F)F)ncc1CC2`, for which the concentration for half-maximal inhibition (IC50) in data set [1] amounted to 1450 nM; in data set [2], 348 nM. This compound had a solubility in data set [3] of 79 µM (≈ 40.8 µg/mL).

Regarding `CN1CCN(c2ccc(OC(F)(F)F)c(Nc3ncc4c(n3)-c3c(c(C(N)=O)nn3CCOC3CCCCO3)CC4)c2)CC1` (stereo not given), the half-maximal inhibitory concentration (IC50) in data set [1] was > 10000 nM. The amount in solution in data set [3] (solubility) came to 35 µM (≈ 21.6 µg/mL).

Turning to `CN1CCN(c2ccc(OC(F)(F)F)c(Nc3ncc4c(n3)-c3c(c(C(N)=O)nn3C)CC4)c2)[C@@H](CO)C1`, the IC50 in [1] is > 10000 nM; in [2], 598 nM. In addition, the concentration in solution in data set [3] (solubility) was 121 µM (≈ 64.4 µg/mL).

With `CN1CCC(c2ccc(OC(F)(F)F)c(Nc3ncc4c(n3)-c3c(c(C(N)=O)nn3C)CC4)c2)CC1`, the half-maximal inhibitory concentration (IC50) was 6 nM in data set [4], > 10000 nM in data set [1] and > 10000 nM in data set [5]. Further, the solubility is 203 µM (≈ 102 µg/mL) in data set [3] and 3800 µg/mL (≈ 7.58 mM) in data set [7]. In addition, the Papp entry in data set [8] is “permeable”; in data set [6], 36.8 ×10⁻⁶ cm/s. In addition, the CLint scaled at 1 µM is 603 mL/min/kg in data set [9] and 15.9 mL/min/kg in data set [10].

`CN1CCN(c2ccc(OC(F)(F)F)c(Nc3ncc4c(n3)-c3c(c(C(N)=O)nn3CCN)CC4)c2)CC1`: the half-maximal inhibitory concentration (IC50) was 33 nM in data set [4], > 10000 nM in data set [1], > 10000 nM in [5] and 1310 nM in data set [2]. In addition, the solubility in [3] turned out to be 202 µM (≈ 107 µg/mL). In addition, in data set [6], the Papp stood at 5 ×10⁻⁶ cm/s.

Take `CCN(CC)CCN(C)c1ccc(OC(F)(F)F)c(Nc2ncc3c(n2)-c2c(c(C(N)=O)nn2C)CC3)c1`: the IC50 is 60 nM in data set [4], > 10000 nM in data set [1], > 10000 nM in data set [5] and 1140 nM in data set [2]. In data set [3], this compound registered a solubility of 162 µM (≈ 86.3 µg/mL).

On to `CN1CCN(c2ccc(OC(F)(F)F)c(Nc3ncc4c(n3)-c3c(c(C(N)=O)nn3C)CC4)c2)CC1`, for which the Papp result in data set [8] is “permeable”. The compound also came in with an intrinsic metabolic clearance (CLint scaled) at 1 µM in [9] of 600 mL/min/kg. Further, the Activity in data set [11] and in [12] was 14% in each case. In [13], the inhibition in vivo at 90 mg/kg came out at 59%.

Consider `CN1CCN(c2ccc(OC(F)(F)F)c(Nc3ncc4c(n3)-c3c(c(C(N)=O)nn3CCO)CC4)c2)CC1.Cl`, for which the AUC(0-inf) in data set [14] came out at 8.57 µM·h; in data set [19], 2.04 µM·h. Further, the clearance in data set [15] is 39.3 mL/min/kg. Further, the Vd in [16] amounted to 1.71 L/kg. For the same compound, the half-life in data set [17] was 0.89 h; in data set [20], 1.6 h. Moreover, in [18], the Cmax was 640 nM. In data set [21], this compound displayed a bioavailability of 24%.

With `CN1CCN(c2ccc(OC(F)(F)F)c(Nc3ncc4c(n3)-c3c(c(C(N)=O)nn3CCO)CC4)c2)CC1`, the result in [22] was Active.

`CN1CC=C(c2ccc(OC(F)(F)F)c(Nc3ncc4c(n3)-c3c(c(C(N)=O)nn3C)CC4)c2)CC1`: the 50% inhibitory concentration (IC50) in data set [1] was 2250 nM; in [2], 34 nM. The values for the solubility in data set [3] and in [7] were 148 µM (≈ 73.9 µg/mL) and 3700 µg/mL (≈ 7.41 mM), respectively. Also, the apparent permeability (Papp) result in data set [8] is “permeable”; in [6] it was 46.4 ×10⁻⁶ cm/s. The CLint scaled at 1 µM in [9] turned out to be 638 mL/min/kg; in data set [10], 24.5 mL/min/kg.

With `CN1CCN(CCCNc2ccc(OC(F)(F)F)c(Nc3ncc4c(n3)-c3c(c(C(N)=O)nn3C)CC4)c2)CC1`, the IC50 in [1] amounted to 1360 nM; in [2] it was 1640 nM. Besides, the solubility in data set [3] was found to be 186 µM (≈ 104 µg/mL).

`CN1CCC(C(=O)Nc2ccc(OC(F)(F)F)c(Nc3ncc4c(n3)-c3c(c(C(N)=O)nn3C)CC4)c2)CC1`: the IC50 in [1] turned out to be 1500 nM; in [2] it was 1350 nM. The solubility in data set [3] was 33 µM (≈ 18 µg/mL).
